According to patent publication US20170183318A1, “AMIDE COMPOUNDS, METHODS FOR PREPARATION, AND USE THEREOF AS AGENTS FOR THE TREATMENT AND PREVENTION OF DISEASES CAUSED BY RNA- AND/OR DNA-CONTAINING VIRUSES, AND CONCOMITANT DISEASES” (OBSCHESTVO S OGRANICHENNOI OTVETSTVENNOSTIYU …, priority 2014, published 2017):
Where two headings read alike, the source gives them in different places. Starred links: 1 amine or outer side, 2 acyl side, 3 side chain; linkers in the order of their positions; H or OH if unused. Non-standard residues stand in square brackets, D forms with d. Residues, ends and D or L forms follow the SMILES beside them. ξ: configuration not given here. Glutaryl = O=C(CCCC(=O)[*:2])[*:1]; ξH = NC(Cc1c[nH]cn1)C(=O)O

How the values were obtained:
human virus hRSV = assay: Antiviral activity against mouse-adapted RS virus (body weight; viral titer in lungs titrated in Hep-2 cells); assay type: in vivo, mice; conditions: for hRSV in the lungs of mice, Day 5, lg / hRSV in the lungs of mice, Day 7, lg: 10% lung suspension titrated in Hep-2 cells (TCID); for hRSV in the lungs of mice, Day 5, lg / Body weight of the mice on day 5 after infection with hRSV (M ± SD) / hRSV in the lungs of mice, Day 7, lg / Body weight of the mice on day 7 after infection with hRSV (M ± SD): compounds 30 mg/kg, Ribavirin 40 mg/kg; for Body weight of the mice on day 5 after infection with hRSV (M ± SD) / Body weight of the mice on day 7 after infection with hRSV (M ± SD): orally once daily for 5 days, n = 6; for log reduction at 30 mg/kg: human respiratory syncytial virus, HEp-2, po
Procedure: Antiviral effectiveness of the chemical compounds against RSV in an experimental murine model in vivo was determined for human virus hRSV that was previously adapted to the growth in mouse lungs. The animals were infected with the virus at a dose of 0.5 log TCID50 intranasally under brief ether anesthesia in a volume of 0.05 ml/mouse. The studied compounds were administered orally once daily for 5 days according to the treatment regimen at a dose of 30 mg/kg. The first administration was made 24 hours after infection. Normal saline solution was administered to mice as placebo. Intact animals served as a negative control and were hold in a separate room under the same conditions as the experimental animals. Each experimental group comprised 12 animals.
The antiviral activity of the studied compounds was determined by the efficiency in the prevention of weight loss and by suppression of the reproduction of hRSV in the mouse lungs by measuring a viral titer in the experimental groups relative to the control on days 5 and 7 after infection.
In addition, the therapeutic action of the compounds of general formula I was determined by their ability to suppress the reproduction of hRSV in the mouse lungs on days 5 and 7 after infection. The viral titer was determined by the titration of a 10% lung suspension in Hep-2 cell culture. The result was registered 2 days after the incubation at 37° C. by TCID.

[1] = tested on: human respiratory syncytial virus (strain A2); assay: Antiviral activity against RS virus in a murine model of suppressed immune system (lung edema); assay type: in vivo; conditions: Balb/c mice, cyclophosphan-suppressed, RS-virus pneumonia; 30 mg/kg once daily for 5 days; M ± SD, n = 5; scores from possible 4
Procedure: Antiviral activity of the chemical compounds against human respiratory syncytial virus (strain A2, an infectious titer of 5×10^6 TCID50/mL) was assessed in a Balb/c murine model of viral pneumonia. The virus was inoculated to animals intranasally in a volume of 50 μL under brief ether anesthesia. The immune response in animals to RS virus was suppressed by intraperitoneal administration of cyclophosphan at a dose of 100 mg/kg 5 days before infection. The studied compounds were administered according to the treatment regimen once daily at a dose of 30 mg/kg for 5 days, starting 24 hours after infection. The activity of the compounds was determined by a reduction in edema of the lung infected with respiratory syncytial virus, compared to the control, on day 5 after infection.

[2] = tested on: herpes simplex virus belonging to antigenic type 2; assay: Murine model of experimental herpetic meningoencephalitis (mortality); assay type: in vivo, white outbred mice; conditions: Mus musculus, po, 336 h
Procedure: In the study, herpes simplex virus belonging to antigenic type 2 was used. White outbred mice weighing 7-8 g were infected i/c (intracerebrally) in a volume of 0.05 ml/mouse comprising a dose of 10LD50. The infectious dose of the virus that caused 100% mortality in mice was 10LD50. Each experimental group comprised 20 mice. Intact animals served as control and were hold in a separate room under the same conditions as the experimental animals. The antiviral activity of the compounds of general formula I was studied by oral administration of the compounds to infected mice once daily at a dose of 30 mg/kg/mouse 24, 48, 72, 96, and 120 hours after infection of the animals with the virus. The mice of the control group were administered placebo (0.2 mL of physiological solution) under the same conditions. The animals were monitored for 14 days after infection by registration the mouse death in the groups.
Each animal was subjected to once-daily observation. The observation included the assessment of general behavior and body condition of animals. The animals were handled according to the International Standards.
The activity of the compounds was evaluated by comparing mortality rates in the groups of animals administered a preparation and placebo.

[3] = Rat model of nasopharyngitis induced by formalin (nasal mucosa changes, cell elements in nasal lavage); assay type: in vivo; conditions: Wistar rats, 18 mg/kg for 3 days; for Mucous membrane of nasal passages: Without changes (number of animals): number of animals out of n = 10, control 0 of 20; for Mucous membrane of nasal passages: Discharge mucus from the nasal passages (number of animals): number of animals out of n = 10, control 20 of 20
Procedure: Nasopharyngitis was induced by intranasal administration of formalin to each nasal passage of rats.
The administration of formalin to the nasal passages of rats leads to the dissemination of inflammation to adjacent tissues, resulting in a clinical pattern similar to the symptoms of nasopharyngitis in a human.
After an acclimatization period, the following groups were formed: • intact animals administered intragastrically a physiological solution in an amount of 0.2 ml, without induction of nasopharyngitis; • a control group consisted of animals administered intragastrically a physiological solution in an amount of 0.2 ml for 3 days after induction of nasopharyngitis; and • animals administered the studied compounds at a dose of 18 mg/kg for 3 days after induction of nasopharyngitis.
Clinical observation of each animal was performed every day at least twice daily.
The caused pathology was characterized by hyperplasia, increased number of caliciform cells, pronounced infiltration of mononuclear cells and leucocytes, and mucus hyperproduction by submucosal glands.
After euthanasia, the inflammation pattern in the nasal passages and throat was studied in each group of animals. The nasal passages were washed with 5 mL of physiological solution and the score of cell elements were counted in 1 μL.

[4] = tested on: Coxsackie A2 virus (strain HCXV A2); assay: Antiviral activity against Coxsackie virus in vivo (mortality and life expectancy of infected mice); conditions: for inhibition in vivo at 30 mg/kg / mortality at 30 mg/kg: Mus musculus, po; for inhibition in vivo at 30 mg/kg: 168 h, vs virus control, read-out: Protective index (%); for inhibition in vivo at 30 mg/kg / Average life expectancy (days), Compared with control / Average life expectancy (days), Relative: 30 mg/kg orally once daily for 7 days; for mortality at 30 mg/kg: 360 h, read-out: Total mortality, %; for Average life expectancy (days), Compared with control: difference vs virus control; for Average life expectancy (days), Relative: mice infected with 10LD50 HCXV A2
Procedure: In the study a trypsin-dependent strain HCXV A2 was used, previously adapted and causing death in mice from Coxsackie virus infection.
The experiment was carried out in white mice weighing 6 to 7 g. The animals were infected intramuscularly with a dose of 0.1 mL/mouse. The used infectious dose causing mortality in mice was 10LD50.
The ability of compounds to provide a therapeutic effect was determined by the mortality rate of HCXV A2 virus-infected mice in the experimental group relative to the group of untreated animals.
The studied compounds and placebo were administered orally according to the treatment regimen. Normal saline solution was administered to mice as placebo. Intact animals served as a negative control and were hold in a separate room under the same conditions as the experimental animals.
For the experiment, groups were formed with 14-15 animals each. Compounds were administered at a dose of 30 mg/kg of body weight. The studied compounds were administered orally once daily for 7 days (first administration was made 24 hours after infection). The animals were monitored for 15 days during which the animals were weighed and the mortality rate was registered every day.

[5] = 120 h, read-out: Suppression of the reproduction of hRSV in the lungs of mice, Day 5, Δlg
[6] = 168 h, read-out: Suppression of the reproduction of hRSV in the lungs of mice, Day 7, Δlg

O=C(O)CCCC(=O)NCCc1cscn1 [Compound 121]
hRSV in the lungs of mice, Day 5, lg (human virus hRSV): 3.08 ± 0.47 lg | Body weight of the mice on day 5 after infection with hRSV (M ± SD) (human virus hRSV): 16.35 ± 0.20 | hRSV in the lungs of mice, Day 7, lg (human virus hRSV): 1.50 ± 0.14 lg | Body weight of the mice on day 7 after infection with hRSV (M ± SD) (human virus hRSV): 17.38 ± 0.29 | log reduction at 30 mg/kg (human virus hRSV; [5]): 1.52 ± 0.47 | log reduction at 30 mg/kg (human virus hRSV; [6]): 2.09 ± 0.22 | Degree of lung edema on day 5 after infection, score [1]: 1.30 ± 0.60 score

O=C(O)CCCC(=O)NCCc1cnco1 [Compound 123]
hRSV in the lungs of mice, Day 5, lg (human virus hRSV): 2.50 ± 0.43 lg | Body weight of the mice on day 5 after infection with hRSV (M ± SD) (human virus hRSV): 15.87 ± 0.20 | hRSV in the lungs of mice, Day 7, lg (human virus hRSV): 1.33 ± 0.19 lg | Body weight of the mice on day 7 after infection with hRSV (M ± SD) (human virus hRSV): 17.55 ± 0.53 | log reduction at 30 mg/kg (human virus hRSV; [5]): 2.1 ± 0.43 | log reduction at 30 mg/kg (human virus hRSV; [6]): 2.62 ± 0.5 | Degree of lung edema on day 5 after infection, score [1]: 1.30 ± 0.17 score

O=C(O)CCCC(=O)NCCc1cocn1 [Compound 124]
mortality at 30 mg/kg [2]: 40% | hRSV in the lungs of mice, Day 5, lg (human virus hRSV): 2.46 ± 0.22 lg | Body weight of the mice on day 5 after infection with hRSV (M ± SD) (human virus hRSV): 16.43 ± 0.26 | hRSV in the lungs of mice, Day 7, lg (human virus hRSV): 0.83 ± 0.37 lg | Body weight of the mice on day 7 after infection with hRSV (M ± SD) (human virus hRSV): 16.37 ± 0.43 | log reduction at 30 mg/kg (human virus hRSV; [5]): 2.14 ± 0.22 | log reduction at 30 mg/kg (human virus hRSV; [6]): 2.97 ± 0.37 | Mucous membrane of nasal passages: Without changes (number of animals) [3]: 7 | Mucous membrane of nasal passages: Discharge mucus from the nasal passages (number of animals) [3]: 3

O=C(O)CCCC(=O)NCCc1cn[nH]n1 [Compound 126]
mortality at 30 mg/kg [2]: 40% | Mucous membrane of nasal passages: Without changes (number of animals) [3]: 4 | Mucous membrane of nasal passages: Discharge mucus from the nasal passages (number of animals) [3]: 6

O=C(O)CCCC(=O)NCCc1cnccn1 [Compound 131]
mortality at 30 mg/kg [2]: 45% | Mucous membrane of nasal passages: Without changes (number of animals) [3]: 5 | Mucous membrane of nasal passages: Discharge mucus from the nasal passages (number of animals) [3]: 5

COC(=O)C(CO)NC(=O)C(Cc1cnc[nH]1)NC(=O)CCCC(=O)O (stereo not drawn) [Compound 149] (Glutaryl-His-Ser-OMe; configuration not given here)
mortality at 30 mg/kg [2]: 25% | hRSV in the lungs of mice, Day 5, lg (human virus hRSV): 2.6 ± 0.1 lg | Body weight of the mice on day 5 after infection with hRSV (M ± SD) (human virus hRSV): 15.44 ± 0.31 | hRSV in the lungs of mice, Day 7, lg (human virus hRSV): 2.3 ± 0.4 lg | Body weight of the mice on day 7 after infection with hRSV (M ± SD) (human virus hRSV): 17.32 ± 0.59 | log reduction at 30 mg/kg (human virus hRSV; [5]): 1.9 ± 0.1 | log reduction at 30 mg/kg (human virus hRSV; [6]): 1.4 ± 0.4 | inhibition in vivo at 30 mg/kg [4]: 27.2% | mortality at 30 mg/kg [4]: 53.3% | Average life expectancy (days), Compared with control [4]: +8.9 days | Average life expectancy (days), Relative [4]: 19.6 days | Mucous membrane of nasal passages: Without changes (number of animals) [3]: 5 | Mucous membrane of nasal passages: Discharge mucus from the nasal passages (number of animals) [3]: 5

COC(=O)CNC(=O)C(Cc1c[nH]cn1)NC(=O)CCCC(=O)O (centres unmarked) [Compound 193] (Glutaryl-[ξH]-Gly-OMe)
mortality at 30 mg/kg [2]: 25% | inhibition in vivo at 30 mg/kg [4]: 45.3% | mortality at 30 mg/kg [4]: 40.1% | Average life expectancy (days), Compared with control [4]: +14.2 days | Average life expectancy (days), Relative [4]: 24.9 days | Mucous membrane of nasal passages: Without changes (number of animals) [3]: 6 | Mucous membrane of nasal passages: Discharge mucus from the nasal passages (number of animals) [3]: 4 | Degree of lung edema on day 5 after infection, score [1]: 0.80 ± 0.17 score
